Columns and labels:
Assay type in all cases: cell-based
[1] = tested on: lateral bud (meristematic) explant of Piper longum; assay: Induction of rhizogenesis from lateral bud explants on culture initiation medium (MS + NAA)
Experimental: Preparing culture initiation medium by using MS basal medium described by Murashige and Skoog in 1968. To the MS basal medium, sucrose (2-4%), agar powder (0.7-1.2%), 100 mg/L myo-inositol and Naphthalene Acetic Acid (NAA) (0.01-0.5 mg/L) was added. This medium was autoclaved at 15 psi for 20 min and then cooled to solidify at room temperature.
Using sterilized forceps, each isolated and surface sterilized lateral bud was inoculated in a test tube containing 15 ml of above-mentioned medium; by placing the cut end of the lateral buds touching the medium.
Incubating the inoculated explants in dark at 23° C. +/−1° C. for 7-15 days. By this time, 6-7 root primordia appear from the basal cut end of all the lateral buds.
Transferring incubated cultures in light having 2000-4000 lux light intensity.
A photoperiod of 16 hours was provided followed by a dark period of 8 hours daily.
Allowing each root to grow to an average size of […] in 45 days.
A lateral bud (meristematic) explant from any position of a young or mature plant of Piper longum was taken and cultured in an MS basal medium supplemented with sucrose (2-4%), NAA (0.1-0.5 mg/l) and gelled with agar (0.7-1.2%). These were incubated in dark for 10 days at 23° C.±1° C. and transferred to a light intensity of 1000-3000 lux for 16 Hrs. followed by 8 Hrs. dark period resulting into rhizogenesis, producing 6-7 root like organs, by direct organogenosis from meristematic tissues of lateral buds, which grew up to 1.5 cm in length by 45th day of isolation.

[2] = tested on: root segments (rhizogenic tissues) of Piper longum; assay: Shoot bud proliferation from root segments on MS medium with BAP; settings: 23° C.
Experimental: Sub-culturing the 18 root segments separately onto MS basal medium supplemented with Benzyl Amino Purine (BAP) (0.5-3 mg/L), 2-4% sucrose, 100 mg/l myo-inositol and 0.7-1.2% agar for solidifying the medium.
Cultures were kept at 23° C. +/−1° C. under 2000-4000 Lux light intensity for a photoperiod of 16 hours followed by a dark period of 8 hours.
Each segment produced 50-55 adventitious shoot buds i.e. (18×50=900 shoot buds).

[3] = tested on: regenerated shoots of Piper longum; assay: Rooting of regenerated shoots on MS medium with IBA; settings: IBA 0.1-3.1 mg/L
Experimental: 2.5-3 cm long shoots with 2-3 nodes were carefully separated from the culture clumps using a sterile scalpel under LF.
Sub-culturing 10 separated shoots in a wide mouthed bottle containing MS basal medium fortified with Indole Butyric Acid (IBA) (1-3 mg/L), 2-4% sucrose, 100 mg/L myo-inositol and 0.7-1.2% agar.
Rooting of the regenerated shoots under reduced light 1000-3000 Lux for 28 days. Photoperiod and temperatures remains the same as before.

Compound: Naphthalene Acetic Acid [NAA]
- root primordia appearing from the basal cut end of the lateral buds ([1]; NAA 0.01-0.5 mg/L in MS basal medium, dark, 23° C. +/−1° C., 7-15 days): 6-7
- root like organs produced by direct organogenesis (rhizogenesis) ([1]; NAA 0.1-0.5 mg/l in MS basal medium, 10 days dark at 23° C., then 1000-3000 lux 16 Hrs./8 Hrs. dark): 6-7
- length of root like organs ([1]; NAA 0.1-0.5 mg/l, by 45th day of isolation): up to 1.5 cm

Compound: c1ccc(CNc2ncnc3[nH]cnc23)cc1 [BAP, Benzylaminopurine]
- adventitious shoot buds produced per root segment ([2]; BAP 0.5-3 mg/L in MS basal medium, 2000-4000 Lux, 16 hours photoperiod): 50-55
- adventitious shoot bud formation ([2]; BAP 0.5-3 mg/L, 0.5 cm long root segments, 2000-4000 lux, 16 Hrs. light/8 Hrs. dark): adventitious shoot bud formation from all the root segments

Compound: Indole Butyric Acid [IBA]
- response of separated shoots (rooting) [3]: All separated shoots were responsive
- root system from the basal cut ends of shoots ([3]; in 4 weeks time): produced healthy root system
